These results are taken from PubChem BioAssay (NCI).

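The compound was tested at five concentrations on cells cultured in 96-well plates, with a 48-hour exposure period. The concentration for 50% growth inhibition is given as GI50. The concentration for full growth arrest is given as TGI.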

Assay in all cases: DTP human tumour cell line panel, 48 h
The subject of test [1] is SF-268 CNS.
Test [2] has as its system SW-620 colon.
Test [3] deals with BT-549 breast.
For test [4], the system named is A549 NSCLC.
Test [5] concerns SR leukemia.
The subject of test [6] is UACC-257 melanoma.
Test [7] concerns HS 578T breast.
For test [8], the system named is A498 renal.
For test [9], the system named is HOP-62 NSCLC.
Test [10] concerns KM12 colon.

Broadly, the GI50 is the concentration giving 50% growth inhibition. As a reminder, the TGI is the concentration at which net growth stops. A low value points to more potent growth arrest. Take `CCCCCc1nc2c(c3c1CCCC3)CCCC2`: the GI50 in [1] is 14.8 µM; in test [2] it was 11.2 µM; in [3], 10.7 µM; in test [4] it was 11.9 µM; in test [5], 15.7 µM; in test [6], 9.7 µM. Further, the GI50 in test [7] is 14 µM; in [8], 3.28 µM; in test [9], 13.1 µM; in test [10], 6.94 µM. Also, the TGI in test [1] was found to be 44.4 µM; in test [2], 27.3 µM; in test [3] it was 24.4 µM; in test [4], 64 µM; in [5] it was 45.1 µM; in test [6], 31.6 µM. The total growth inhibition concentration (TGI) in test [7] came out at 69.3 µM; in test [8] it was 19.6 µM; in [9] it was 29.1 µM; in [10] it was 33.7 µM.
As to `CCOc1ccc(-c2cnnn2-c2nonc2-n2cccc2)cc1`, the GI50 was 0.736 µM in test [1]; 0.111 µM in test [2]; 0.363 µM in test [3]; 0.388 µM in [4]; 0.104 µM in test [5]; 0.449 µM in test [6]. In addition, the concentration for 50% growth inhibition (GI50) is 0.229 µM in [7], 0.203 µM in test [8], 0.421 µM in [9] and 0.125 µM in [10]. Further, the TGI in test [1] was above 100 µM; in [2], above 100 µM; in [4] it was above 100 µM; in test [5] it was 41.4 µM; in test [6], above 69 µM; in [7], 0.873 µM. Further, the total growth inhibition concentration (TGI) is 0.924 µM in test [8], above 100 µM in test [9] and 10.1 µM in test [10].
As to `CC(C)[C@H]1CC[C@H]2[C@@H](CC[C@H]3[C@](C)(CN)CCC[C@]23C)C1`, the GI50 was 2.36 µM in [1]; 1.84 µM in test [2]; 15.6 µM in test [3]; 2.18 µM in [4]; 2.65 µM in test [5]; 2.68 µM in [6]. The GI50 in [7] was 2.45 µM; in [8] it was 13.2 µM; in test [9] it was 1.89 µM; in test [10], 1.79 µM. Moreover, the TGI in [1] amounted to 6.04 µM; in test [2], 3.49 µM; in [3] it was 37.5 µM; in [4], 4.23 µM; in [5] it was 15.2 µM; in test [6], 6.02 µM. Besides, the concentration for total growth inhibition (TGI) was 6.67 µM in [7], 27 µM in [8], 3.48 µM in test [9] and 3.18 µM in [10].
Consider `Fc1ccc(-c2nn3c(-c4ccc(F)c(Cl)c4)nnc3s2)cc1`, for which the GI50 in [1] is 38.7 µM; in test [2] it was above 50 µM; in test [3], 33.2 µM; in test [4], 21.2 µM; in test [5], 43.8 µM; in test [6] it was 10.6 µM. The GI50 was above 50 µM in [7], above 50 µM in test [8], 27.5 µM in [9] and above 50 µM in test [10]. The total growth inhibition concentration (TGI) is above 50 µM in test [1]; above 50 µM in test [2]; above 50 µM in [3]; above 50 µM in [4]; above 50 µM in test [5]; 41.6 µM in test [6]. Also, the total growth inhibition concentration (TGI) in test [7], in test [8], in [9] and in test [10] was above 50 µM throughout.
In the case of `CC(C)Nc1ccc(Nc2ccccc2)cc1`, the GI50 in test [1] is 17 µM; in test [2], 15.8 µM; in test [3], 11.3 µM; in test [4], 26.2 µM; in test [5], 15.7 µM; in [6], 15.6 µM. The GI50 in test [7] is 38.3 µM; in test [8], 9.69 µM; in test [9] it was 23.6 µM; in test [10], 22.4 µM. Further, the TGI was 50.4 µM in [1]; 45.8 µM in [2]; 33.9 µM in [3]; above 100 µM in [4]; 49.3 µM in [5]; 31.5 µM in [6]. Further, the TGI in test [7] is above 100 µM; in test [8], above 100 µM; in [9], 66.9 µM; in test [10] it was above 100 µM.
Consider `CC(=O)Nc1ccc(/C=C/C(=O)c2ccccc2)cc1`, for which the GI50 in test [1] is 15.9 µM; in test [2], 4.32 µM; in test [3], 20.1 µM; in [4], 20.5 µM; in test [5] it was 3.24 µM; in test [6], 20.7 µM. The GI50 is 5.97 µM in test [7], 15.9 µM in [8], 14.8 µM in [9] and 4.47 µM in [10]. The TGI came out at 37.5 µM in test [1]; 17.1 µM in test [2]; 41.2 µM in test [3]; 45.4 µM in test [4]; 22 µM in test [5]; 54.7 µM in [6]. For the same compound, the total growth inhibition concentration (TGI) stood at 43.3 µM in test [7], 36.7 µM in [8], 29.3 µM in test [9] and 16 µM in test [10].
Regarding `CCCCCCc1cc2cc(-c3nc4ccccc4[nH]3)c(=Nc3ccccc3C)oc2cc1O`, the GI50 in test [1] is 2.65 µM; in [2], 2.04 µM; in test [3] it was 1.83 µM; in test [4] it was 2.44 µM; in [5] it was 1.86 µM; in test [6], 2.6 µM. The GI50 was 2.37 µM in [7], 4.02 µM in test [8], 1.95 µM in test [9] and 3.27 µM in [10]. The concentration for total growth inhibition (TGI) in [1] amounted to 8.45 µM; in [2], 4.91 µM; in test [3], 3.55 µM; in test [4], 6.29 µM; in test [5] it was 4.47 µM; in [6], 7.01 µM. Besides, the concentration for total growth inhibition (TGI) worked out at 6.71 µM in test [7], 16.8 µM in test [8], 4.57 µM in test [9] and 11.7 µM in test [10].
On to `CCC[CH2][Sn]([CH2]CCC)([O]C(=O)c1cc(F)ccc1F)[O][Sn]([CH2]CCC)([CH2]CCC)[O]C(=O)c1cc(F)ccc1F`, for which the GI50 in test [1] was 0.216 µM; in test [2], 0.116 µM; in test [3], 0.225 µM; in test [4] it was 1.77 µM; in [5] it was 0.14 µM; in test [6], 0.255 µM. The GI50 in test [7] is 0.237 µM; in [8], 0.238 µM; in test [9], 1.84 µM; in [10], 0.999 µM. Besides, the total growth inhibition concentration (TGI) in test [1] is 0.798 µM; in test [2] it was 0.274 µM; in test [3] it was 0.946 µM; in test [4] it was 3.68 µM; in [5], above 22.3 µM; in test [6] it was 1.21 µM. Besides, the total growth inhibition concentration (TGI) in [7] worked out at 0.994 µM; in test [8], 0.631 µM; in [9] it was 3.27 µM; in test [10], 2.32 µM.
